# From patent publication US10960020B2, “Modulation of PCSK9 and LDLR through DRP1 inhibition” (THE BRIGHAM AND WOMEN'S HOSPITAL, INC., priority 2016, dated 2021)
# Entries after “also recorded” stand apart in the source; their conditions may differ.
# Legend:
# [1] = system: PCSK9 secretion in primary human hepatocytes; experiment: Secreted PCSK9 ELISA, primary human hepatocytes; format: cell-based; conditions: Mdivi-1 50 μM, 24 hours
# Description: Pitavastatin and T0901317 were synthesized and provided by Kowa Company, Ltd. (Tokyo, Japan), and treated at a dose of 1 μM in all experiments. DMSO (vehicle; final concentration 0.01%) and Mdivi-1 (>99.85% purity) were purchased from Sigma (St. Louis, Mo.). Mdivi-1 in DMSO vehicle was added at a concentration of 50 μM in all experiments. Mdivi-1 in DMSO vehicle was added to cell culture media in a 50 mL tube, vortexed hard for several minutes and then incubated at 37° C. prior to adding to cells to ensure the compound was fully solubilized.
# HepG2 cells were obtained from ATCC (Manassas, Va.), and cultured in EMEM with L-glutamine (ATCC) medium, 1% pen/strep, with and without 10% FBS (Thermo Fisher Scientific, Waltham, Mass.) in 12-well plates (Corning, Durham, N.C.). HepG2 cells were plated at a density of 60-70% prior to treatment to avoid clumping. […] Cell viability was assessed by Trypan Blue exclusion using live/dead cell counting on a Countess™ II LT automated cell counter (Thermo Fisher Scientific).
# Mouse serum PCSK9 was measured using the mouse proprotein convertase 9/PCSK9 quantikine ELISA kit (MPC900, R&D Systems, Minneapolis, Minn.), and human liver cell secreted PCSK9 using the human proprotein convertase 9/PCSK9 DuoSet ELISA (DY3888, R&D Systems), both according to manufacturers' protocols.
# [2] = system: PCSK9 secretion in HepG2 cells; experiment: Secreted PCSK9 ELISA, HepG2 media; format: cell-based, human; conditions: HepG2, 24 hours; Mdivi-1 50 μM, pitavastatin 1 μM, T0901317 1 μM
# Description: Pitavastatin and T0901317 were synthesized and provided by Kowa Company, Ltd. (Tokyo, Japan), and treated at a dose of 1 μM in all experiments. […] Mdivi-1 in DMSO vehicle was added at a concentration of 50 μM in all experiments. Mdivi-1 in DMSO vehicle was added to cell culture media in a 50 mL tube, vortexed hard for several minutes and then incubated at 37° C. prior to adding to cells to ensure the compound was fully solubilized.
# [3] = system: HNF1A, SREBP-2, and SREBP-1a; experiment: Real time PCR, PCSK9 regulating transcription factors; format: cell-based; conditions: HepG2 and primary human hepatocytes, Mdivi-1 50 μM, 24 hours
# From the text: (§1) Human cells and mouse liver was homogenized with TriZolTM (Life Technologies, Grand Island, N.Y.) to isolate RNA. QuantiTectTM Reverse Transcription Kit (Qiagen, Hilden, Germany) was used for reverse transcription on total RNA. cDNA was generated using the Quanta gScriptTM cDNA Synthesis Kit (Bioscience Inc., Gaithersburg, Md.). mRNA levels were quantified on a 7900HT real-time PCR system (Thermo Fisher Scientific) using TaqManTM real-time PCR with the following probes: Hs02758991_g1 (human GAPDH); Mm99999915_g1 (mouse Gapdh); Hs00236329 m1 (human BCL2L1); Hs00247147_m1 (human DRP1); Hs00545399_m1 (human PCSK9); Mm01263610_m1 (mouse Pcsk9); Hs00168352_m1 (human HMGCR); […]); Hs00181192_m1 (human LDLR); Mm00440169_m1 (mouse Ldlr); Hs01088691_m1 (human SREBP1); Mm00550338_m1 (mouse Srebp1); Hs00231674_m1 (human SREBP1a); custom primer (human SREBP1c); Hs01081784_m1 (human SREBP2); Mm01306292_m1 (mouse Srebp2); Hs01005622_m1 (human FASN); […]); Hs00167041_m1 (human HNF1A); Mm00493434_m1 (mouse Hnf1a); Hs00171168 (human APOE); Hs01059118_m1 (human ABCA1); Hs01103582_s1 (human JUN). Mouse SREBP-1c was analyzed by SYBERTM green PCR with the following primers: [NT] All expression levels were normalized to GAPDH using the ΔΔCT method.
# DRP1 protein = experiment: Western blot, HepG2 DRP1 protein; format: cell-based, human; conditions: HepG2, Mdivi-1 50 μM, 24 hours
# SREBP-1c mRNA = experiment: Real time PCR, HepG2 SREBP-1c mRNA; format: cell-based, human; conditions: HepG2, Mdivi-1 50 μM, 24 hours
# From the text: as §1
# p62 = experiment: Western blot, HepG2 p62 and p (S349) p62; format: cell-based, human; conditions: HepG2, 24 hours; Mdivi-1 50 μmol/L, MG132 0.3 μmol/L
# cellular PCSK9 protein [4] = experiment: Western blot, HepG2 cellular PCSK9 protein; format: cell-based, human; conditions: HepG2, Mdivi-1 50 μM, 24 hours
# LDLR protein = experiment: Western blot, HepG2 LDLR protein; format: cell-based, human; conditions: HepG2, 24 hours; Mdivi-1 50 μM, pitavastatin 1 μM, T0901317 1 μM
# PCSK9 mRNA = experiment: Real time PCR, HepG2 PCSK9 mRNA; format: cell-based, human; conditions: HepG2, Mdivi-1 50 μM, 24 hours
# From the text: as §1
# [5] = system: ischemia/reperfusion injury-induced myocardial infarction; conditions: mice; cited from earlier work
# HepG2 cells = experiment: HepG2 viability by Trypan Blue exclusion; format: cell-based, human; conditions: HepG2, Mdivi-1, 24 hours
# Description: HepG2 cells were obtained from ATCC (Manassas, Va.), and cultured in EMEM with L-glutamine (ATCC) medium, 1% pen/strep, with and without 10% FBS (Thermo Fisher Scientific, Waltham, Mass.) in 12-well plates (Corning, Durham, N.C.). HepG2 cells were plated at a density of 60-70% prior to treatment to avoid clumping. Freshly isolated primary human hepatocytes plated at 100% confluency on 12-well plates were obtained from Thermo Fisher Scientific. Three donors were used to obtain experimental data: person, person, and a person. Primary hepatocytes were treated immediately upon arrival and cultured in William's E medium with hepatic maintenance supplement pack (Thermo Fisher Scientific), 1% pen/strep (VWR; Radnor, Pa.), and 10% FBS (Thermo Fisher Scientific). Cell viability was assessed by Trypan Blue exclusion using live/dead cell counting on a Countess™ II LT automated cell counter (Thermo Fisher Scientific).
# cellular PCSK9 protein [6] = experiment: Western blot, primary human hepatocyte cellular PCSK9 protein; format: cell-based; conditions: primary human hepatocytes, Mdivi-1 50 μM, 24 hours
compound,measurement,setting,value
"COc1cc(-n2c(S)nc3ccccc3c2=O)c(Cl)cc1Cl [Mdivi-1, 3-(2,4-Dichloro-5-methoxyphenyl)-2,3-dihydro-2-thioxo-4(1H)-quinazolinone]",PCSK9 secretion by ELISA,[1],reduced
same,PCSK9 secretion change by ELISA,[2],−76.1%
same,"Expression of HNF1A, SREBP-2, and SREBP-1a",[3],not changed
same,DRP1 protein content,DRP1 protein,without altering
same,SREBP-1c mRNA,SREBP-1c mRNA,strongly reduced
same,p62 abundance,p62,strongly increased
same,p62 phosphorylation,p62,increased
same,Cellular PCSK9 protein abundance,cellular PCSK9 protein [4],reduced
same,HepG2 LDLR protein increase,LDLR protein,5.8 fold
same,Cellular PCSK9 mRNA,PCSK9 mRNA,reduced; also recorded: strongly reduced
same,ischemia/reperfusion injury-induced myocardial infarction,[5],reduces
same,cell viability,HepG2 cells,without altering
same,cellular PCSK9 protein,cellular PCSK9 protein [6],without altering
